The compounds below were run against NRAS Q61K (Homo sapiens, UniProt P01111+P62937, Q61K) (assay: Disruption of BRAF RBD interaction with Ras (FRET / MOA assay)). Conditions: read-out: NRAS Q61K FRET data IC50.
Type: biochemical
Experimental: Compound is present in plate wells as a 10-point 3-fold dilution series starting at a final concentration of 30 μM. […] Compounds that facilitate disruption of a Ras:RAF complex are identified as those eliciting a decrease in the TR-FRET ratio relative to DMSO control wells.
Note—The following protocol describes a procedure for monitoring disruption of K-Ras G12C (GMP-PNP) binding to BRAF^RBD by a compound of the invention. This protocol may also be executed substituting other Ras proteins or nucleotides.
The purpose of this biochemical assay was to measure the ability of test compounds to facilitate ternary complex formation between a nucleotide-loaded K-Ras isoform and Cyclophilin A; the resulting ternary complex disrupts binding to a BRAF^RBD construct, inhibiting K-Ras signaling through a RAF effector. Data is reported as IC50 values.
Compound was present in plate wells as a 10-point 3-fold dilution series starting at a final concentration of 30 μM. […] Compounds that facilitate disruption of a K-Ras:RAF complex were identified as those eliciting a decrease in the TR-FRET ratio relative to DMSO control wells.

Chain of NRAS Q61K (P01111 whole entry Q61K): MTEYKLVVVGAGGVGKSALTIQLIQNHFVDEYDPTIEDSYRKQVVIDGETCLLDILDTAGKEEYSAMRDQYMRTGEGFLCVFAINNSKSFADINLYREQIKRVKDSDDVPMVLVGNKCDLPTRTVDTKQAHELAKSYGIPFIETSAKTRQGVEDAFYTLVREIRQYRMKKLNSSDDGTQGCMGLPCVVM
Chain of NRAS Q61K (P62937 whole entry): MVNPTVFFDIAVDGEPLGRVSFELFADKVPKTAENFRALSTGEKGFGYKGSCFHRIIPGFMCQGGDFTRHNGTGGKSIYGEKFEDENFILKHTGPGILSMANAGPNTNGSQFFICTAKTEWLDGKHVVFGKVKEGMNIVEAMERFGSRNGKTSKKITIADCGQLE

IC50, 10 to 100 nM:
CO[C@@H](C)c1ncccc1-c1c2c3cc(ccc3n1CC(F)F)-c1csc(n1)C[C@H](NC(=O)[C@H](C(C)C)N(C)C(=O)N1CC(N(C)C)C1)C(=O)N1CCC[C@H](N1)C(=O)OCC(C)(C)C2 (atropisomer, axis not shown) [Compound A316]
CCn1c(-c2cccnc2[C@H](C)OC)c2c3cc(ccc31)-c1csc(n1)C[C@H](NC(=O)[C@H](C(C)C)N(C)C(=O)N(C)C1COC1)C(=O)N1CCC[C@H](N1)C(=O)OCC(C)(C)C2 (atropisomer, axis not shown) [Compound A334]
CCn1c(-c2cccnc2[C@H](C)OC)c2c3cc(ccc31)-c1csc(n1)C[C@H](NC(=O)[C@H](C(C)C)N(C)C(=O)N1CC(C(=O)O)C1)C(=O)N1CCC[C@H](N1)C(=O)OCC(C)(C)C2 (atropisomer, axis not shown) [Compound A344]
CCn1c(-c2cccnc2[C@H](C)OC)c2c3cc(ccc31)-c1csc(n1)C[C@H](NC(=O)[C@H](C(C)C)N(C)C(=O)N1CC(S(C)(=O)=O)C1)C(=O)N1CCC[C@H](N1)C(=O)OCC(C)(C)C2 (atropisomer, axis not shown) [Compound A383]
CCn1c(-c2cccnc2[C@H](C)OC)c2c3cc(ccc31)-c1csc(n1)C[C@H](NC(=O)[C@H](C(C)C)N(C)C(=O)N1CC(COC)C1)C(=O)N1CCC[C@H](N1)C(=O)OCC(C)(C)C2 (atropisomer, axis not shown) [Compound A387]
CCn1c(-c2cccnc2[C@H](C)OC)c2c3cc(ccc31)-c1csc(n1)C[C@H](NC(=O)[C@H](C(C)C)N(C)C(=O)N1CC[C@H](O)C1)C(=O)N1CCC[C@H](N1)C(=O)OCC(C)(C)C2 (atropisomer, axis not shown) [Compound A401]
CCn1c(-c2cccnc2[C@H](C)OC)c2c3cc(ccc31)-c1cc(O)cc(c1)C[C@H](NC(=O)[C@H](C(C)C)N(C)C(=O)[C@H]1CCC(=O)O1)C(=O)N1CCC[C@H](N1)C(=O)OCC(C)(C)C2 (atropisomer, axis not shown) [Compound A405]
CCn1c(-c2cccnc2[C@H](C)OC)c2c3cc(ccc31)-c1csc(n1)C[C@H](NC(=O)[C@H](C(C)C)N(C)C(=O)N1C[C@@H]3OCCN(C)[C@@H]3C1)C(=O)N1CCC[C@H](N1)C(=O)OCC(C)(C)C2 (atropisomer, axis not shown) [Compound A444]
CCn1c(-c2cccnc2[C@H](C)OC)c2c3cc(ccc31)-c1csc(n1)C[C@H](NC(=O)[C@H](C(C)C)N(C)C(=O)N1C[C@@H]3OCCN(C)[C@H]3C1)C(=O)N1CCC[C@H](N1)C(=O)OCC(C)(C)C2 (atropisomer, axis not shown) [Compound A445]
CCn1c(-c2cccnc2[C@H](C)OC)c2c3cc(ccc31)-c1csc(n1)C[C@H](NC(=O)[C@H](C(C)C)N(C)C(=O)N1CC3(CC(N(C)C(C)C)C3)C1)C(=O)N1CCC[C@H](N1)C(=O)OCC(C)(C)C2 (atropisomer, axis not shown) [Compound A485]
CCn1c(-c2cccnc2[C@H](C)OC)c2c3cc(ccc31)-c1csc(n1)C[C@H](NC(=O)[C@H](C(C)C)N(C)C(=O)N1CCCC[C@H](N(C)C)C1)C(=O)N1CCC[C@H](N1)C(=O)OCC(C)(C)C2 (atropisomer, axis not shown) [Compound A491]
CCn1c(-c2cccnc2[C@H](C)OC)c2c3cc(ccc31)-c1csc(n1)C[C@H](NC(=O)[C@H](C(C)C)N(C)C(=O)N1CCC[C@H](N(C)C)CC1)C(=O)N1CCC[C@H](N1)C(=O)OCC(C)(C)C2 (atropisomer, axis not shown) [Compound A493]
CCn1c(-c2cccnc2[C@H](C)OC)c2c3cc(ccc31)-c1csc(n1)C[C@H](NC(=O)[C@H](C(C)C)N(C)C(=O)N1CC3(CC(N(C)C4COC4)C3)C1)C(=O)N1CCC[C@H](N1)C(=O)OCC(C)(C)C2 (atropisomer, axis not shown) [Compound A511]
CCn1c(-c2cccnc2[C@H](C)OC)c2c3cc(ccc31)-c1csc(n1)C[C@H](NC(=O)[C@H](C(C)C)N(C)C(=O)N1CC3(CC(NCCOC)C3)C1)C(=O)N1CCC[C@H](N1)C(=O)OCC(C)(C)C2 (atropisomer, axis not shown) [Compound A512]
CCn1c(-c2cccnc2[C@H](C)OC)c2c3cc(ccc31)-c1csc(n1)C[C@H](NC(=O)[C@H](C(C)C)N(C)C(=O)N1CCC13CCS(=O)(=O)CC3)C(=O)N1CCC[C@H](N1)C(=O)OCC(C)(C)C2 (atropisomer, axis not shown) [Compound A530]
CCn1c(-c2cccnc2[C@H](C)OC)c2c3cc(ccc31)-c1csc(n1)C[C@H](NC(=O)[C@H](C(C)C)N(C)C(=O)N1CC([C@H](C)COC)C1)C(=O)N1CCC[C@H](N1)C(=O)OCC(C)(C)C2 (atropisomer, axis not shown) [Compound A533]
CCn1c(-c2cccnc2[C@H](C)OC)c2c3cc(ccc31)-c1csc(n1)C[C@H](NC(=O)[C@H](C(C)C)N(C)C(=O)N1CCN3C(=O)CN(C)C[C@H]3C1)C(=O)N1CCC[C@H](N1)C(=O)OCC(C)(C)C2 (atropisomer, axis not shown) [Compound A537]
CCn1c(-c2cccnc2[C@H](C)OC)c2c3cc(ccc31)-c1csc(n1)C[C@H](NC(=O)[C@H](C(C)C)N(C)C(=O)N1CC([C@H](C)N(C)C)C1)C(=O)N1CCC[C@H](N1)C(=O)OCC(C)(C)C2 (atropisomer, axis not shown) [Compound A538]
CCn1c(-c2cccnc2[C@H](C)OC)c2c3cc(ccc31)-c1csc(n1)C[C@H](NC(=O)[C@H](C(C)C)N(C)C(=O)N1CC(NS(C)(=O)=O)C1)C(=O)N1CCC[C@H](N1)C(=O)OCC(C)(C)C2 (atropisomer, axis not shown) [Compound A552]
CCn1c(-c2cccnc2[C@H](C)OC)c2c3cc(ccc31)-c1csc(n1)C[C@H](NC(=O)[C@H](C(C)C)N(C)C(=O)N(C)CCc1ccncc1)C(=O)N1CCC[C@H](N1)C(=O)OCC(C)(C)C2 (atropisomer, axis not shown) [Compound A557]
CCn1c(-c2cccnc2[C@H](C)OC)c2c3cc(ccc31)-c1csc(n1)C[C@H](NC(=O)[C@H](C(C)C)N(C)C(=O)N1CCC[C@H](N(C)C)C1)C(=O)N1CCC[C@H](N1)C(=O)OCC(C)(C)C2 (atropisomer, axis not shown) [Compound A569]
CCn1c(-c2cccnc2[C@H](C)OC)c2c3cc(ccc31)-c1csc(n1)C[C@H](NC(=O)[C@H](C(C)C)N(C)C(=O)N1CC(CN(C)C)C1)C(=O)N1CCC[C@H](N1)C(=O)OCC(C)(C)C2 (atropisomer, axis not shown) [Compound A576]
CCn1c(-c2cccnc2[C@H](C)OC)c2c3cc(ccc31)-c1csc(n1)C[C@H](NC(=O)[C@H](C(C)C)N(C)C(=O)N1C[C@H](N)[C@@H](O)C1)C(=O)N1CCC[C@H](N1)C(=O)OCC(C)(C)C2 (atropisomer, axis not shown) [Compound A581]

Source: patent US20230374035A1, “RAS INHIBITORS” (Revolution Medicines, Inc., priority 2019, published 2023)
